Measured values: patent US20260315446A1, “ANTIFUNGAL COMPOUNDS AND USES THEREOF” (priority 2023, published 2026)
“Also recorded” adds a separate entry of the source. Read-outs that look alike come from different tables or passages of the source.

Legend:
[1] = test system: germinal center (GC) B cells; assay: In vivo immunosuppression, germinal center B cells (Example 1); set-up: species or system mouse (C57BL/6); conditions: daily i.p., FK506 5 mg/kg or JH-FK-05 60 mg/kg; day 7
Description: Based on the in vitro evidence of reduced immunosuppressive activity of JH-FK-05, it was hypothesized that this reduction would translate into reduced immunosuppression in an in vivo model. The murine model for immunosuppression measures the T cell-dependent proliferation of two immune cell subtypes in response to immunization with an antigen. Animals were treated daily via intraperitoneal (i.p.) injection with vehicle, 5 mg/kg FK506, or 60 mg/kg JH-FK-05, beginning on day −1 and ending on day 7. […] On day 0, animals were immunized with NP-OVA to stimulate T cell-dependent signaling that would result in proliferation of T follicular helper (Tfh) cells and germinal center (GC) B cells. Animals were sacrificed on day 7, and the proportions of Tfh and GC B cells in the lymph nodes were measured. […]
Groups of 6 female C57BL/6 mice (Jackson Laboratory) were treated daily by intraperitoneal (i.p.) injection with about 100 μL vehicle, 5 mg/kg FK506, or 60 mg/kg JH-FK-05 beginning on day −1. […] Mice were treated and monitored daily until they were sacrificed on day 7. Draining lymph nodes were harvested on day 7, and the populations of T follicular helper cells and GC B cells were analyzed by flow cytometry. Tfh and GC B cells were measured from T Cell Receptor β (TCRβ^+) CD4^+CD44^hi cells and TCRβ^−CD19^+ cells, respectively.

[2] = Pharmacokinetics in whole blood; format: in vivo, mouse (CD-1); conditions: for Cmax / Tmax / AUC / CL/F / half-life: mouse, in vivo, ip, 40 mg/kg, 40 mg/kg i.p. single dose, whole blood; for AUC: read-out: AUC (area under the curve); for CL/F: read-out: CI/F (clearance as Dose/AUCINF) (converted)
Description: For the lead compound JH-FK-08, the mechanism of action resulting in antifungal activity was tested for conservation of calcineurin inhibition. To probe the JH-FK-08 mechanism of action, MICs of JH-FK-08 were determined with fungal mutants that lack the drug-binding protein FKBP12 or have mutations in the binding site on calcineurin that prevent FKBP12-FK506 binding and inhibition. […] Taken together, these findings support the hypothesis that JH-FK-08 requires FKBP12 for antifungal activity, and the target of the FKBP12-JH-FK-08 complex is calcineurin. The length of time that drugs are active in vivo is critical information relevant to drug development, and the time frame of drug activity can have a drastic impact on treatment regimen and efficacy. Therefore, the pharmacokinetic profiles of FK506 and JH-FK-08 were investigated. Three male and three female CD1 mice were administered a single dose of JH-FK-08 or FK506 at 40 mg/kg. Whole blood samples were taken over a 24-hour period, and the drug concentration remaining in the blood was determined. Pharmacokinetic parameters were calculated using a non-compartmental approach (see, Gabrielsson J, Weiner D. 2012. Methods Mot Biol Clifton NJ 929:377-389). […] When assessing specific pharmacokinetic measures, sex differences began to emerge.
Male (n=3, avg. 28 g) and female (n=3, avg. 25 g) CD-1 mice were injected intraperitoneally with 40 mg/kg of either JH-FK-08 or FK506. The drug formulation was 10% Kolliphor/10% ethanol/80% PBS given as 10 μL/g body weight (i.e., 200 μL per 20 g mouse). Blood (~30 μL) was collected serially (“tail snip”) at 10, 20, and 45 min and 1.5, 3, 6, 12, and 24 h into vials containing […] of 75 mg/mL K2EDTA in water and immediately frozen until the day of liquid chromatography-tandem-mass spectroscopy (LC/MS/MS) analysis. Blood concentration/time data were utilized to calculate relevant PK parameters using the non-compartmental approach and extravascular administration model within WinNonlin (2.1) software.
In a 0.5-mL polypropylene vial, 10 μL blood and 20 μL of acetonitrile fortified with 100 ng/mL FK520 (internal standard) were vigorously agitated in the FastPrep FP120 apparatus (Thermo-Savant) at speed four for 45 s. After centrifugation for 5 min at 16,000 rpm, 20 μL of supernatant was transferred to a polypropylene autosampler vial. LC/MS/MS (Agilent 1200 series HPLC and Sciex/Applied Biosystems API 5500 QTrap) was utilized to quantify JH-FK-08 and FK506 in mouse blood. Analytical column: Agilent Eclipse Plus (C18, 1.8 μm, 50×4.6 mm), at 40° C. Mobile phase: (A) 0.1% formic acid, 10 mM ammonium acetate, 2% acetonitrile in water, and (B) methanol. Elution gradient: 0-0.1 min 30%-98% B, 0.1-1.5 min 98% B, 1.5-1.6 min 98%-30% B, and 1.6-2.1 min 30% B. Run time: 5 min. Injection volume: 10 μL. Mass spectrometer parameters (voltages, gas flow, and temperature) were optimized by infusion of 100 ng/mL of analytes in the mobile phase at 10 μL/min using the Analyst 1.6.2 software tuning module. The MS/MS (m/z) transitions used for quantification were 864.4/846.5 (JH-FK-08), 821.4/768.5 (FK506), and 809.4/756.5 (FK520, internal standard). A set of calibrator samples in drug-free blood was prepared by adding appropriate amounts of pure analyte (JH-FK-08 or FK506) in the […] range. The calibration samples were analyzed alongside the experimental samples. The accuracy acceptance criterion was 85% for each but the lowest level (2.43 ng/mL, 80%, LLOQ). Analyst 1.6.2 software was used for data acquisition, integration of the chromatograms, calibration curve calculation, and quantification of the study samples.

[3] = females, read-out: t1/2 (3-12 h) (half-life) (converted)
[4] = females, read-out: t1/2 (12-24 h) (half-life) (converted)
[5] = males, read-out: t1/2 (3-12 h) (half-life) (converted)
[6] = males, read-out: t1/2 (12-24 h) (half-life) (converted)

| SMILES | proliferation/presence of GC B cells [1] | Cmax ([2]; females) [ng/mL] | Tmax ([2]; females) [h] | AUC ([2]; females) [ng·h/mL] | CL/F ([2]; females) [mL/min/kg] | half-life [2, 3] [h] | half-life [2, 4] [h] | Cmax ([2]; males) [ng/mL] | Tmax ([2]; males) [h] | AUC ([2]; males) [ng·h/mL] | CL/F ([2]; males) [mL/min/kg] | half-life [2, 5] [h] | half-life [2, 6] [h] | whole blood drug concentration over time versus FK506 ([2]; 40 mg/kg single dose) |
| --- | --- | --- | --- | --- | --- | --- | --- | --- | --- | --- | --- | --- | --- | --- |
| C=CCC1C=C(C)CC(C)CC(OC)C2OC(O)(C(=O)C(=O)N3CCCCC3C(=O)OC(C(C)=CC3CCC(O)C(OC)C3)C(C)C(O)CC1=O)C(C)CC2OC (stereo not drawn) [FK506, reference compound] | significantly reduced the proliferation | 5960 | 1.11 | 27100 | 25.9 | 1.35 | 3.59 | 4510 | 0.75 | 15200 | 49.4 | 1.48 | 2.46 |  |
| CC[C@@H]1/C=C(\C)C[C@H](C)C[C@H](OC)[C@H]2O[C@@](O)(C(=O)C(=O)N3CCCC[C@H]3C(=O)O[C@H](/C(C)=C/[C@@H]3CC[C@@H](O)[C@H](OC)C3)[C@H](C)[C@@H](O)C/C1=N/NC(C)=O)[C@H](C)C[C@@H]2OC [JH-FK-05] | did not reduce the presence of either cell type and was statistically indistinguishable from the vehicle treatment |  |  |  |  |  |  |  |  |  |  |  |  |  |
| CC[C@@H]1/C=C(\C)C[C@H](C)C[C@H](OC)[C@H]2O[C@@](O)(C(=O)C(=O)N3CCCC[C@H]3C(=O)O[C@H](/C(C)=C/C3CC[C@@H](O)[C@H](OC)C3)[C@H](C)[C@@H](O)C/C1=N/NC(=O)OC)[C@H](C)C[C@@H]2OC (stereo partly drawn) [JH-FK-08] |  | 7500 | 2.5 | 31400 | 21.5 | 1.14 | 1.88 | 4070 | 1.25 | 15600 | 46.4 | 1.29 | 2.26 | No significant differences across groups were observed in whole blood samples of drug concentration over time; also recorded: no statistically significant difference between groups |
